Test results taken from patent US7928140B2, “Benzothiazole PI3 kinase modulators for cancer treatment” (Amgen Inc., priority 2007, dated 2011).

What was measured:
PI3K α = target: T1, PI3K α (Homo sapiens, UniProt P42336); assay: In vitro PI3 kinase enzyme assay (alpha), ATP loss, bioluminescence; assay type: biochemical; conditions: read-out: PI3Kα ATP loss IC50;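 also: purified p110α/p85 heterodimer acting on PtdIns(4,5)P2 at room temperature, remaining ATP read by luminescence, inhibition scaled between compound-free wells with and without enzyme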
T1 construct: Full length p110 subunits of PI3K α, β and δ, N-terminally labeled with polyHis tag; polyHis (N); made in house; host or cells: Sf9 insect cells (baculovirus)
Method: Full length p110 subunits of PI3K α, β and δ, N-terminally labeled with polyHis tag, were co-expressed with p85 in baculovirus expression vectors in sf9 insect cells. P110/p85 heterodimers were purified by sequential Ni-NTA, Q-HP, and Superdex-100 chromatography. Purified α, β and δ isozymes were stored at −20° C. in 20 mM Tris, pH 8, 0.2M NaCl, 50% glycerol, 5 mM DTT, 2 mM Na cholate.
PI3K enzyme assays (alpha, beta, delta and gamma) were performed in 25 mL with the above final concentrations of components in white polypropylene plates (Costar catalogue #3355). Phosphatidyl inositol phosphoacceptor, PtdIns(4,5)P2 (eg. P4508) was obtained from Echelon Biosciences. The ATPase activity of the alpha and gamma isozymes was not greatly stimulated by PtdIns(4,5)P2 under these conditions and was therefore omitted from the assay of these isozymes. Test compounds were dissolved in DMSO and diluted with three-fold serial dilutions. The compound in DMSO (1 μL) was added per test well, and the inhibition relative to reactions containing no compound, with and without enzyme was determined. After assay incubation at RT, the reaction was stopped and residual ATP determined by addition of an equal volume of a commercial ATP bioluminescence kit (Perkin Elmer EasyLite) according to the manufacturer's instructions, and detected using an Analyst GT luminometer.

PI3K β = target: T2, PI3K β (Homo sapiens, UniProt P42338); assay: In vitro PI3 kinase enzyme assay (beta), ATP loss, bioluminescence; assay type: biochemical; conditions: read-out: PI3Kβ ATP loss IC50;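 also: purified p110β/p85 heterodimer with PtdIns(4,5)P2 as acceptor, incubated at room temperature, leftover ATP read by luminescence, inhibition scaled to compound-free wells with and without enzyme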
T2 construct: Full length p110 subunits of PI3K α, β and δ, N-terminally labeled with polyHis tag; polyHis (N); made in house; host or cells: Sf9 insect cells (baculovirus)
T2 sequence (P42338 whole entry): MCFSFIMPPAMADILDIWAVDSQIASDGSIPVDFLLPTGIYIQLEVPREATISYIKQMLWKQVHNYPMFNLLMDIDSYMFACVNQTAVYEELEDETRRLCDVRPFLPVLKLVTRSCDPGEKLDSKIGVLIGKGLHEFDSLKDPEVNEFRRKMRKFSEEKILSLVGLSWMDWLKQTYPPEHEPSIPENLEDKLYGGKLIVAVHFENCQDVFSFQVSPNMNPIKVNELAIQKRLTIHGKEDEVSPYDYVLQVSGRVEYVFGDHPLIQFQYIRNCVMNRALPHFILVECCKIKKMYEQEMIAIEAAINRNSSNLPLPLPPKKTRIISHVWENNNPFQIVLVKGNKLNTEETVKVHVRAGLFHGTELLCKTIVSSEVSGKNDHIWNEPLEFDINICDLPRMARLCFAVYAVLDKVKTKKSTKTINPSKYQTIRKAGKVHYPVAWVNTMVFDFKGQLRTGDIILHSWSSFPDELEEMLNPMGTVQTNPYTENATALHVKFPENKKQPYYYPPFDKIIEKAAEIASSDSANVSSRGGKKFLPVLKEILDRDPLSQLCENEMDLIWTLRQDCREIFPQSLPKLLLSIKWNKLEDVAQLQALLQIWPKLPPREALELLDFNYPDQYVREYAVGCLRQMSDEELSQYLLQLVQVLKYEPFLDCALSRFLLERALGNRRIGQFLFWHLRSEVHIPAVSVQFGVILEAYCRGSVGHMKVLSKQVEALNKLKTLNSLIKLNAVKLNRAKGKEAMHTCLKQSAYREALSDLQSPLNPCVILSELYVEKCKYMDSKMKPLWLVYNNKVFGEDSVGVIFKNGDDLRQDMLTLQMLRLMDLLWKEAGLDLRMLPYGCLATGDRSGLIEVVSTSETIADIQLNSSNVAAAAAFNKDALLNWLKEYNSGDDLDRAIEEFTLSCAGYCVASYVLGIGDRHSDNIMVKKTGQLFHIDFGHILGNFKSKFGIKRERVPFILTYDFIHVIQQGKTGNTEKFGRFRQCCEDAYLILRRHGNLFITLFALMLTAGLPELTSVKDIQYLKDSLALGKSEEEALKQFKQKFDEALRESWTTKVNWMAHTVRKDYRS
T2 sequence (P27986 whole entry partner): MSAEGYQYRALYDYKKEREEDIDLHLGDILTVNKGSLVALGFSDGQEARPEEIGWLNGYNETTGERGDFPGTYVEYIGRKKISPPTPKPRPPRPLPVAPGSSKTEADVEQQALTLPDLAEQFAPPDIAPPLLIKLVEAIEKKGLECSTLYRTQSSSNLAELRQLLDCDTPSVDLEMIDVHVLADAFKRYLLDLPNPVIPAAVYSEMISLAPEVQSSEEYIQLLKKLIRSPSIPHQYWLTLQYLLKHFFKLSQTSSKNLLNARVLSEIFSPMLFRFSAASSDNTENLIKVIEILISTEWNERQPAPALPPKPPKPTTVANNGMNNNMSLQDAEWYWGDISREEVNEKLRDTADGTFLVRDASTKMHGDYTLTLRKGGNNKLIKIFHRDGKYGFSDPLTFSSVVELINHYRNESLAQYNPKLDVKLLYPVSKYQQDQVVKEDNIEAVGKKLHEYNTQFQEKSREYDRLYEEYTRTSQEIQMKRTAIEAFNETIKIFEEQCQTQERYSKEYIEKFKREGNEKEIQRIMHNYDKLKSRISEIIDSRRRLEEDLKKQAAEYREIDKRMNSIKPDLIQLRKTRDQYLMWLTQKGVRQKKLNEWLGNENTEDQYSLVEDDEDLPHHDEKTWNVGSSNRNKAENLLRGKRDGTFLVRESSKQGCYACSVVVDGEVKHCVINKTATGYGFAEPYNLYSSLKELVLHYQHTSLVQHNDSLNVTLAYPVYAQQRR

T1 sequence (P42336 whole entry, species assumed): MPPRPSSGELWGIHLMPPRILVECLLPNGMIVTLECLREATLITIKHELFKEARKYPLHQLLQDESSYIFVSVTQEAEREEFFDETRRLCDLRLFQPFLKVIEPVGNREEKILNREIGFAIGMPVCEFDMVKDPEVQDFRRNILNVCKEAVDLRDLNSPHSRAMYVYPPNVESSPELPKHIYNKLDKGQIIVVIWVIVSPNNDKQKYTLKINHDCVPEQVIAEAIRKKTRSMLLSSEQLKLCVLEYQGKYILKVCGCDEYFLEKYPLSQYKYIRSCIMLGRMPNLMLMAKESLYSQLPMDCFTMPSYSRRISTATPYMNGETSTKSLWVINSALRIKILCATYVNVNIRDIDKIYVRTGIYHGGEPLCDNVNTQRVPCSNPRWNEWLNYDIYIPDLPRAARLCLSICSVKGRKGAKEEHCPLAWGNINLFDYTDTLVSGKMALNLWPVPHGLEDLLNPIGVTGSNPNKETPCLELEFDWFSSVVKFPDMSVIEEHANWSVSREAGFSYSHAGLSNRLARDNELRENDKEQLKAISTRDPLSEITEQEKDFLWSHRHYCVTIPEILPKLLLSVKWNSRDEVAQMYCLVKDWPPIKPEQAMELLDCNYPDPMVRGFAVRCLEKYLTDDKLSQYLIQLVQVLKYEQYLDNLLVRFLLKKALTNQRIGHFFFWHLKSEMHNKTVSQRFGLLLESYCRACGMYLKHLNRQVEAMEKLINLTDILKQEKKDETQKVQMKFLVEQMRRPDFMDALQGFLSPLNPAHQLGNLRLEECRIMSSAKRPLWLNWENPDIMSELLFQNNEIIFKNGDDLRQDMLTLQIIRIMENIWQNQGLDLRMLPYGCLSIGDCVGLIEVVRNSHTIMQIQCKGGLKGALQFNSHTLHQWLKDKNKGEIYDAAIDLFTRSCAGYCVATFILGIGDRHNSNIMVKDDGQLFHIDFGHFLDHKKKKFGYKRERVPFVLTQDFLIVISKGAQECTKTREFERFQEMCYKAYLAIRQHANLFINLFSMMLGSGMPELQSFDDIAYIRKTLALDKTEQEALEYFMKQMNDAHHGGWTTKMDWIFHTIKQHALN
T1 sequence (P27986 whole entry partner, species assumed): as the sequence (P27986 whole entry partner) above

SMILES	IC50 (PI3K α)	IC50 (PI3K β)
CC(=O)Nc1nc2ccc(-c3cncc(N(C)S(=O)(=O)c4ccc(C(F)(F)F)cc4)c3)cc2s1 [Example 218, N-(6-(5-(N-methyl-4-(trifluoromethyl)phenylsulfonamido)pyridin-3-yl)benzo[d]thiazol-2-yl)acetamide]	1050 nM	8270 nM
CC(=O)Nc1nc2ccc(-c3cncc(OCCN4CCCC4=O)c3)cc2s1 [Example 229, N-(6-(5-(2-(2-oxopyrrolidin-1-yl)ethoxy)pyridin-3-yl)benzo[d]thiazol-2-yl)acetamide]	1080 nM	15000 nM
CC(=O)Nc1nc2ccc(-c3cncc(OCCN4CCOCC4)c3)cc2s1 [Example 230, N-(6-(5-(2-morpholinoethoxy)pyridin-3-yl)benzo[d]thiazol-2-yl)acetamide]	2790 nM	19300 nM
CC(=O)Nc1nc2ccc(-c3cncc(OCCN4CCCCC4)c3)cc2s1 [Example 233, N-(6-(5-(2-(piperidin-1-yl)ethoxy)pyridin-3-yl)benzo[d]thiazol-2-yl)acetamide]	4140 nM	11900 nM
CC(=O)Nc1nc2ccc(-c3cncc(OCCN4CCCCCC4)c3)cc2s1 [Example 234, N-(6-(5-(2-(azepan-1-yl)ethoxy)pyridin-3-yl)benzo[d]thiazol-2-yl)acetamide]	2490 nM	9980 nM
CC(=O)Nc1nc2ccc(-c3cnccc3OC(F)F)cc2s1 [Example 248, N-(6-(4-(difluoromethoxy)pyridin-3-yl)benzo[d]thiazol-2-yl)acetamide]	3840 nM	17100 nM
CC(=O)Nc1nc2ccc(-c3cnc(OC(F)F)cc3C)cc2s1 [Example 250, N-(6-(6-(difluoromethoxy)-4-methylpyridin-3-yl)benzo[d]thiazol-2-yl)acetamide]	11900 nM	27500 nM
CC(=O)Nc1nc2ccc(-c3cnccc3CO)cc2s1 [Example 251, N-(6-(4-(hydroxymethyl)pyridin-3-yl)benzo[d]thiazol-2-yl)acetamide]	1910 nM	> 40000 nM
CC(=O)Nc1nc2ccc(-c3cncc(OCCN4CCC(C)(C)C4=O)c3)cc2s1 [Example 252]	2920 nM	45000 nM
CC(=O)Nc1nc2ccc(-c3cncc(OCCN4CCC(C)C4=O)c3)cc2s1 (stereo not drawn) [Example 253]	1540 nM	45600 nM
CC(=O)Nc1nc2ccc(-c3cncc(OCCN4CCC(F)(F)C4=O)c3)cc2s1 [Example 254]	1180 nM	24100 nM
CC(=O)Nc1nc2ccc(-c3ccnc(N4CCCCC4)n3)cc2s1 [Example 263, N-(6-(2-(piperidin-1-yl)pyrimidin-4-yl)benzo[d]thiazol-2-yl)acetamide]	1940 nM	> 40000 nM
CC(=O)Nc1nc2ccc(-c3ccnc(Nc4ccccn4)n3)cc2s1 [Example 264, N-(6-(2-(pyridin-2-ylamino)pyrimidin-4-yl)benzo[d]thiazol-2-yl)acetamide]	2490 nM	> 40000 nM
CC(=O)Nc1nc2ccc(-c3ccnc(NN4CCCCC4)n3)cc2s1 [Example 265, N-(6-(2-(piperidin-1-ylamino)pyrimidin-4-yl)benzo[d]thiazol-2-yl)acetamide]	2600 nM	40800 nM
CN(C)c1cc(-c2ccc3nc(NS(C)(=O)=O)sc3c2)cnc1Cl [Example 276, N-(6-(6-chloro-5-(dimethylamino)pyridin-3-yl)benzo[d]thiazol-2-yl)methanesulfonamide]	1720 nM	29900 nM
CC(=O)Nc1nc2ccc(-c3cnc(Cl)c(N(C(=O)OC(C)(C)C)C(=O)OC(C)(C)C)c3)cc2s1 [Example 277, Bis(tert-butyl) 5-(2-acetamidobenzo[d]thiazol-6-yl)-2-chloropyridin-3-ylcarbamate]	2190 nM	4800 nM

Compounds with a lower IC50 (PI3K α), results first:

IC50 (PI3K α)	IC50 (PI3K β)	SMILES
462 nM	743 nM	CC(=O)Nc1nc2ccc(-c3ccnc(N(C)S(=O)(=O)c4cccc5cnccc45)n3)cc2s1 [Example 208, N-(6-(2-(N-methylisoquinoline-5-sulfonamido)pyrimidin-4-yl)benzo[d]thiazol-2-yl)acetamide]
185 nM	855 nM	CC(=O)Nc1nc2ccc(-c3ccnc(N(C)S(=O)(=O)c4ccsc4)n3)cc2s1 [Example 209, N-(6-(2-(N-methylthiophene-3-sulfonamido)pyrimidin-4-yl)benzo[d]thiazol-2-yl)acetamide]
929 nM	3930 nM	CC(=O)Nc1nc2ccc(-c3ccnc(N(C)S(=O)(=O)c4cn(C)cn4)n3)cc2s1 [Example 211, N-(6-(2-(N,1-dimethyl-1H-imidazole-4-sulfonamido)pyrimidin-4-yl)benzo[d]thiazol-2-yl)acetamide]
438 nM	450 nM	CC(=O)Nc1nc2ccc(-c3ccnc(N(C)S(=O)(=O)c4ccc(C)cc4)c3)cc2s1 [Example 215, N-(6-(2-(N,4-dimethylphenylsulfonamido)pyridin-4-yl)benzo[d]thiazol-2-yl)acetamide]
375 nM	2930 nM	CC(=O)Nc1nc2ccc(-c3cncc(N(C)S(=O)(=O)c4ccc(F)cc4)c3)cc2s1 [Example 219, N-(6-(5-(4-fluoro-N-methylphenylsulfonamido)pyridin-3-yl)benzo[d]thiazol-2-yl)acetamide]
539 nM	3330 nM	CC(=O)Nc1nc2ccc(-c3cncc(N(C)S(=O)(=O)c4ccc(Cl)cc4)c3)cc2s1 [Example 220, N-(6-(5-(4-chloro-N-methylphenylsulfonamido)pyridin-3-yl)benzo[d]thiazol-2-yl)acetamide]
161 nM	576 nM	CC(=O)Nc1nc2ccc(-c3cccc(N(C)S(=O)(=O)c4ccccc4F)n3)cc2s1 [Example 226, N-(6-(6-(2-fluoro-N-methylphenylsulfonamido)pyridin-2-yl)benzo[d]thiazol-2-yl)acetamide]
637 nM	15700 nM	CC(=O)Nc1nc2ccc(-c3cncc(OC(C)CN4CCOCC4)c3)cc2s1 (stereo not drawn) [Example 231, N-(6-(5-(1-morpholinopropan-2-yloxy)pyridin-3-yl)benzo[d]thiazol-2-yl)acetamide]
837 nM	7440 nM	CC(=O)Nc1nc2ccc(-c3cncc(OCCN4CCOC4=O)c3)cc2s1 [Example 232, N-(6-(5-(2-(2-oxooxazolidin-3-yl)ethoxy)pyridin-3-yl)benzo[d]thiazol-2-yl)acetamide]
156 nM	> 40000 nM	CCOc1ccc(-c2ccc3nc(NC(C)=O)sc3c2)cn1 [Example 243, N-(6-(6-ethoxypyridin-3-yl)benzo[d]thiazol-2-yl)acetamide]
688 nM	2990 nM	COc1cc(C)c(-c2ccc3nc(NC(C)=O)sc3c2)cn1 [Example 244, N-(6-(6-methoxy-4-methylpyridin-3-yl)benzo[d]thiazol-2-yl)acetamide]
256 nM	12400 nM	COc1cc(Cl)ncc1-c1ccc2nc(NC(C)=O)sc2c1 [Example 246, N-(6-(6-chloro-4-methoxypyridin-3-yl)benzo[d]thiazol-2-yl)acetamide]
717 nM	8110 nM	CC(=O)Nc1nc2ccc(-c3ccc(OC(F)F)nc3)cc2s1 [Example 249, N-(6-(6-(difluoromethoxy)pyridin-3-yl)benzo[d]thiazol-2-yl)acetamide]
794 nM	> 40000 nM	CC(=O)Nc1nc2ccc(-c3cncc(OCCN4CCC(F)C4=O)c3)cc2s1 (stereo not drawn) [Example 255]
115 nM	2070 nM	CN(C)c1cc(-c2ccc3nc(NC(=O)NCCN4CCOCC4)sc3c2)cnc1Cl [Example 273, 1-(6-(6-chloro-5-(dimethylamino)pyridin-3-yl)benzo[d]thiazol-2-yl)-3-(2-morpholinoethyl)urea]
111 nM	747 nM	CC(=O)Nc1nc2ccc(-c3cnc(Cl)c(OC(C)C#N)c3)cc2s1 (stereo not drawn) [Example 290, N-(6-(6-chloro-5-(1-cyanoethoxy)pyridin-3-yl)benzo[d]thiazol-2-yl)acetamide]
983 nM	3790 nM	CC(=O)Nc1nc2ccc(-c3cc(OC(C)C#N)cnc3Cl)cc2s1 (stereo not drawn) [Example 291, N-(6-(2-chloro-5-(1-cyanoethoxy)pyridin-3-yl)benzo[d]thiazol-2-yl)acetamide]
164 nM	2080 nM	COCCOCOc1cc(-c2ccc3nc(NC(C)=O)sc3c2)cnc1Cl [Example 292, N-(6-(6-chloro-5-((2-methoxyethoxy)methoxy)pyridin-3-yl)benzo[d]thiazol-2-yl)acetamide]
211 nM	> 40000 nM	COCCOCOc1cc(-c2ccc3nc(NC(C)=O)sc3c2)cnc1C(F)(F)F [Example 293, N-(6-(5-((2-methoxyethoxy)methoxy)-6-(trifluoromethyl)pyridin-3-yl)benzo[d]thiazol-2-yl)acetamide]
16.3 nM	29.2 nM	COc1ccc(S(=O)(=O)Nc2cc(-c3ccc4nc(NC(=O)C5CCCCC5)sc4c3)cnc2Cl)cc1 [Example 304, N-(6-(6-chloro-5-(((4-methoxyphenyl)sulfonyl)amino)-3-pyridinyl)-1,3-benzothiazol-2-yl)cyclohexanecarboxamide]
58.9 nM	224 nM	COc1ccc(S(=O)(=O)Nc2cc(-c3ccc4nc(NC(C)C)sc4c3)cnc2Cl)cc1 [Example 305, N-(2-chloro-5-(2-((1-methylethyl)amino)-1,3-benzothiazol-6-yl)-3-pyridinyl)-4-methoxybenzenesulfonamide]
104 nM	411 nM	COc1ccc(S(=O)(=O)Nc2cc(-c3ccc4nc(NCC5CCCCC5)sc4c3)cnc2Cl)cc1 [Example 306, N-(2-chloro-5-(2-((cyclohexylmethyl)amino)-1,3-benzothiazol-6-yl)-3-pyridinyl)-4-methoxybenzenesulfonamide]
965 nM	2940 nM	CC(C)(C)Nc1cc(-c2ccc3nc(N)sc3c2)cnc1Cl [Example 315, 6-(5-(tert-butylamino)-6-chloro-3-pyridinyl)-1,3-benzothiazol-2-amine]
